Key:
[1] = system: Corn plants containing 24DT22 nucleotide sequence, control nucleotide sequence and wild type corn plants; experiment: Herbicide-resistance effect test of transgenic corn T1 plants (prop/brace root development); type: in vivo, corn (Zong 31); conditions: 21 days after spraying
Method: Herbicide resistance effects tests to 2,4-D dimethyl ammonium salt and agroxone of corn plants containing 24DT22 nucleotide sequence, control nucleotide sequence respectively and wild type corn plants (stages V3-V4) were performed respectively.
Corn plants containing 24DT22 nucleotide sequence, control nucleotide sequence respectively and wild type corn plants were taken and spayed with 2,4-D dimethyl ammonium salt (8960 g ae/ha, 16-folds concentration in field), agroxone (8960 g ae/ha, 16-folds concentration in field) and blank solvent (water) respectively. Prop root development was counted 21 days after spaying. Three strains (S6, S7 and S8) of corn plants transformed with 24DT22 nucleotide sequence, two strains (S9 and S10) of corn plants transformed with control nucleotide sequence and 1 strain of wild type (CK2) corn were selected and 10-15 plants from each stain were tested.

[2] = system: Arabidopsis T1 plants transformed with 24DT22 nucleotide sequence, control nucleotide sequence and wild-type Arabidopsis plants; experiment: Herbicide resistance effect test of transgenic Arabidopsis T1 plants (spraying); type: in vivo, Arabidopsis thaliana; conditions: Arabidopsis genotype 24DT22; for High resistant (number of plants): 560 g ae/ha (1-fold field concentration), growth consistent with blank solvent 7 days after spraying; for Moderate resistant (number of plants): curly rosette leaves 7 days after spraying; for Low resistant (number of plants): incapable of bolting 14 days after spraying
Source text: 24DT22 gene was used to transform Arabidopsis for the first time. At first, T1 transformants were selected from the background of un-transformed seeds, using glufosinate-ammonium selection scheme. About 20000 T1 seeds are screened among which 314 strains of T1 generation positive transformants (PAT gene) were identified, i.e. the transformation efficiency was about 1.6%. Herbicide resistance effect tests to 2,4-D dimethyl ammonium salt and agroxone of Arabidopsis T1 plants transformed with 24DT22 nucleotide sequence, control nucleotide sequence respectively and wild-type Arabidopsis plants were performed after 18 days of planting.
Arabidopsis T1 plants transformed with 24DT22 nucleotide sequence, control nucleotide sequence respectively and wild-type Arabidopsis plants were sprayed with 2,4-D dimethyl ammonium salt (560 g ae/ha, 1-fold concentration in field), agroxone (560 g ae/ha, 1-fold concentration in field) and blank solvent (water). Resistance conditions of the plants were counted 7 days and 14 days after spraying. Plants with growth conditions consistent with blank solvent (water) 7 days after spaying were classified as highly resistant plants; Plants with curly rosette leaves 7 days after spaying were classified as moderately resistant plants; Plants incapable of bolting 14 days after spaying were classified as low-resistant plants and the dead plants 14 days after spaying were classified as non-resistant plants. Because each Arabidopsis T1 plant is an independent transformation event, significant differences of individual T1 responses can be expected under a given dose.

[3] = system: Soybean plants containing 24DT22 nucleotide sequence, control nucleotide sequence and wild type soybean plants; experiment: Herbicide resistance effect test of transgenic soybean T1 plants (spraying, damage degree); type: in vivo, soybean (Zhonghuang 13); conditions: for Average damage % 6HAT: 6 hours after spraying; for Average damage % 2DAT: 2 days after spraying
Method: Herbicide resistance effects tests to 2,4-D dimethyl ammonium salt and agroxone of soybean plants containing 24DT22 nucleotide sequence and control nucleotide sequence respectively and wild type soybean plants (stages V3-V4) were performed respectively.
Soybean plants containing 24DT22 nucleotide sequence, control nucleotide sequence and wild type soybean plants were taken and spayed with 2,4-D dimethyl ammonium salt (2240 g ae/ha, four-folds concentration in field), agroxone (2240 g ae/ha, four-folds concentration in field) and blank solvent (water). Take statistics of the damage degree of each plant caused by herbicides according to the curling degree of leaves and the damage degree of growing point six hours ([…]), two days (2DAT), seven days (7DAT) and 14 days (14DAT) after spraying respectively: if leaves are flat like wild-type leaves and the growing point is intact, the damage degree is 0%; if leaves curl up and wilt and the growing point is died, the damage degree is 100%. There are three strains contained a transferred 24DT22 nucleotide sequence (S1, S2 and S3), two strains contained a transferred control sequence (S4 and S5) and one wild-type strain (CK1) in total; select 10-15 plants from each strain for testing.

[4] = corn strain S8 (24DT22), 8960 g ae/ha
[5] = soybean strain S1 (24DT22), 2240 g ae/ha (4-fold field concentration)
[6] = soybean strain S2 (24DT22), 2240 g ae/ha
[7] = soybean strain S3 (24DT22), 2240 g ae/ha

SMILES: CNC.O=C(O)COc1ccc(Cl)cc1Cl [2,4-D dimethyl ammonium salt]
- Abnormal development of brace roots (number of plants) ([1]; corn strain CK2 (wild type), 8960 g ae/ha): 15
- Normal development of brace roots (number of plants) [1, 4]: 10
- High resistant (number of plants) [2]: 28
- Moderate resistant (number of plants) ([2]; 560 g ae/ha): 1
- Non-resistant (number of plants) ([2]; 560 g ae/ha, dead 14 days after spraying): 0
- Low resistant (number of plants) ([2]; 560 g ae/ha): 2
- Average damage % 6HAT [3, 5]: 6%
- Average damage % 6HAT [3, 6]: 11%
- Average damage % 6HAT [3, 7]: 3%
- Average damage % 2DAT [3, 7]: 0%

SMILES: Cc1cc(Cl)ccc1OCC(=O)O [agroxone]
- Normal development of brace roots (number of plants) ([1]; corn strain S6 (24DT22), 8960 g ae/ha (16-fold field concentration)): 13
- Normal development of brace roots (number of plants) ([1]; corn strain S7 (24DT22), 8960 g ae/ha): 14
- Normal development of brace roots (number of plants) [1, 4]: 13
- Abnormal development of brace roots (number of plants) ([1]; corn strain S10 (control sequence), 8960 g ae/ha): 11
- High resistant (number of plants) [2]: 25
- Moderate resistant (number of plants) ([2]; 560 g ae/ha): 3
- Low resistant (number of plants) ([2]; 560 g ae/ha): 1
- Average damage % 6HAT [3, 5]: 10%
- Average damage % 6HAT [3, 6]: 16%
- Average damage % 2DAT [3, 6]: 11%
- Average damage % 7DAT ([3]; soybean strain S2 (24DT22), 2240 g ae/ha, 7 days after spraying): 6%
- Average damage % 6HAT [3, 7]: 7%
- Average damage % 2DAT [3, 7]: 4%

From patent US10655140B2, “Herbicide-resistant protein, encoding gene and use thereof” (BEIJING DABEINONG BIOTECHNOLOGY CO., LTD., priority 2015, dated 2020)
